Results taken from the supplement of paper PMC10627819.

How the values were obtained:
Assay in all cases: fitness (endpoint OD595 vs no drug) (fraction); higher = more growth
S. aureus Newman = tested on: S. aureus Newman
In short: (§1)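 Growth medium was TSB, LB Lennox or CY, and plates were kept at 37 °C. Inoculation was at OD595 0.01 in 384-well plates, at 30 µl per well or 55 µl for S. pneumoniae. OD595 was monitored every 30 min for 14 h and background-subtracted using the first reading. Fitness is the optical density on entering stationary phase divided by the robust mean of no-drug controls, with values capped at 1.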

S. aureus DSM 20231 = tested on: S. aureus DSM 20231
In short: as §1

B. subtilis 168 = tested on: B. subtilis 168
In short: as §1
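Note: OD595 on entry to stationary phase over no-drug wells; at most 1.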

CCCCCCCCCC(=O)N[C@H]1[C@H](Oc2c3cc4cc2Oc2ccc(cc2Cl)[C@@H](O[C@@H]2O[C@H](CO)[C@@H](O)[C@H](O)[C@H]2NC(C)=O)[C@@H]2NC(=O)[C@H](NC(=O)[C@@H]4NC(=O)[C@H]4NC(=O)[C@@H](Cc5ccc(c(Cl)c5)O3)NC(=O)[C@H](N)c3ccc(O)c(c3)Oc3cc(O)cc4c3)c3ccc(O)c(c3)-c3c(O[C@H]4O[C@H](CO)[C@@H](O)[C@H](O)[C@@H]4O)cc(O)cc3[C@@H](C(=O)O)NC2=O)O[C@H](CO)[C@@H](O)[C@@H]1O [Teicoplanin] + Cn1nnc(-c2ccc(-c3ccc(N4C[C@H](CO)OC4=O)cc3F)cn2)n1 [Tedizolid]
fitness, main component drawn
Conditions | first compound 0.1562 µg/mL | first compound 0.3125 µg/mL | first compound 0.625 µg/mL
S. aureus DSM 20231, partner 0.0625 µg/mL | 0.808 | 0.89 | 0.949
S. aureus DSM 20231, partner 0.25 µg/mL | 0.066 | 0.0756 | 0.1
S. aureus Newman, partner 0.0625 µg/mL | ≥ 1 | 0.969 | 0.811
S. aureus Newman, partner 0.125 µg/mL | ≥ 1 | 0.97 | 0.779
S. aureus Newman, partner 0.25 µg/mL | – | 0.391 | 0.163

fitness, S. aureus Newman, one replicate, main component drawn
Conditions | first compound 0.62 µg/mL | first compound 1.24 µg/mL | first compound 2.48 µg/mL
partner 0.0625 µg/mL | 0.883 | 0.789 | 0.474
partner 0.125 µg/mL | 0.853 | 0.812 | 0.627
partner 0.25 µg/mL | 0.447 | 0.402 | 0.361

N[C@@H]1CONC1=O [Cycloserine D] + CO/N=C(\C(=O)N[C@@H]1C(=O)N2C(C(=O)[O-])=C(C[N+]3(C)CCCC3)CS[C@H]12)c1csc(N)n1 [Cefepime]
fitness
Conditions | first compound 0.375 µg/mL | first compound 0.75 µg/mL | first compound 1.5 µg/mL
S. aureus DSM 20231, partner 0.125 µg/mL | 0.907 | 0.936 | 0.99
S. aureus DSM 20231, partner 0.25 µg/mL | 0.92 | 0.97 | 0.952
S. aureus DSM 20231, partner 0.5 µg/mL | 0.853 | 0.884 | 0.862
S. aureus Newman, partner 0.125 µg/mL | 0.894 | 0.925 | 0.89
S. aureus Newman, partner 0.25 µg/mL | 0.808 | 0.854 | 0.852
S. aureus Newman, partner 0.5 µg/mL | 0.782 | 0.801 | 0.779

N[C@@H]1CONC1=O [Cycloserine D] + C[C@@H]1O[C@@H]1P(=O)(O)O [Fosfomycin]
fitness
Conditions | first compound 0.125 µg/mL | first compound 0.25 µg/mL | first compound 0.375 µg/mL | first compound 0.5 µg/mL | first compound 0.75 µg/mL | first compound 1.5 µg/mL
B. subtilis 168, partner 1.562 µg/mL | 0.71 | 0.666 | – | 0.679 | – | –
B. subtilis 168, partner 3.124 µg/mL | 0.608 | 0.583 | – | 0.592 | – | –
B. subtilis 168, partner 6.248 µg/mL | 0.479 | 0.504 | – | 0.453 | – | –
S. aureus DSM 20231, partner 0.781 µg/mL | – | – | 0.724 | – | 0.703 | 0.764
S. aureus DSM 20231, partner 1.562 µg/mL | – | – | 0.586 | – | 0.577 | 0.597
S. aureus DSM 20231, partner 3.124 µg/mL | – | – | 0.451 | – | 0.471 | 0.481
S. aureus Newman, partner 0.781 µg/mL | – | – | 0.64 | – | 0.623 | 0.669
S. aureus Newman, partner 1.562 µg/mL | – | – | 0.516 | – | 0.518 | 0.514
S. aureus Newman, partner 3.124 µg/mL | – | – | 0.165 | – | 0.201 | 0.172

CCC[C@@H]1C[C@@H](C(=O)N[C@@H]([C@H]2O[C@H](SC)[C@H](O)[C@@H](O)[C@H]2O)[C@H](C)Cl)N(C)C1 [Clindamycin] + N[C@@H]1CONC1=O [Cycloserine D]
fitness
Conditions | partner 0.125 µg/mL | partner 0.25 µg/mL | partner 0.375 µg/mL | partner 0.5 µg/mL | partner 0.75 µg/mL | partner 1.5 µg/mL
B. subtilis 168, first compound 0.0625 µg/mL | 0.592 | 0.512 | – | 0.549 | – | –
B. subtilis 168, first compound 0.125 µg/mL | 0.413 | 0.365 | – | 0.363 | – | –
B. subtilis 168, first compound 0.25 µg/mL | 0.396 | 0.348 | – | 0.329 | – | –
S. aureus DSM 20231, first compound 0.0625 µg/mL | – | – | 0.0659 | – | 0.0748 | 0.0881
S. aureus DSM 20231, first compound 0.125 µg/mL | – | – | 0.0216 | – | 0.0398 | 0.0593
S. aureus Newman, first compound 0.0312 µg/mL | – | – | 0.732 | – | 0.735 | 0.746
S. aureus Newman, first compound 0.125 µg/mL | – | – | 0.0953 | – | 0.115 | 0.103

fitness, B. subtilis 168, one replicate
Conditions | first compound 0.0039 µg/mL | first compound 0.0078 µg/mL | first compound 0.0156 µg/mL
partner 0.125 µg/mL | 0.985 | 0.927 | 0.879
partner 0.25 µg/mL | 0.974 | 0.859 | 0.796
partner 0.5 µg/mL | ≥ 1 | 0.901 | 0.845

N[C@@H]1CONC1=O [Cycloserine D] + COc1c(N2C[C@@H]3CCCN[C@@H]3C2)c(F)cc2c(=O)c(C(=O)O)cn(C3CC3)c12 [Moxifloxacin]
fitness
Conditions | first compound 0.125 µg/mL | first compound 0.25 µg/mL | first compound 0.375 µg/mL | first compound 0.5 µg/mL | first compound 0.75 µg/mL | first compound 1.5 µg/mL
B. subtilis 168, partner 0.0312 µg/mL | 0.0481 | 0.0489 | – | 0.0432 | – | –
B. subtilis 168, partner 0.0625 µg/mL | 0.033 | 0.034 | – | 0.028 | – | –
B. subtilis 168, partner 0.125 µg/mL | 0.0229 | 0.0218 | – | 0.03 | – | –
B. subtilis 168, partner 2 µg/mL | 0.0539 | 0.0355 | – | 0.0265 | – | –
B. subtilis 168, partner 4 µg/mL | 0.0542 | 0.0318 | – | 0.0298 | – | –
B. subtilis 168, partner 8 µg/mL | 0.04 | 0.0429 | – | 0.0319 | – | –
S. aureus DSM 20231, partner 0.0075 µg/mL | – | – | 0.827 | – | 0.85 | 0.844
S. aureus DSM 20231, partner 0.015 µg/mL | – | – | 0.713 | – | 0.712 | 0.687
S. aureus DSM 20231, partner 0.03 µg/mL | – | – | 0.575 | – | 0.586 | 0.564
S. aureus Newman, partner 0.0075 µg/mL | – | – | 0.761 | – | 0.753 | 0.705
S. aureus Newman, partner 0.015 µg/mL | – | – | 0.599 | – | 0.552 | 0.586
S. aureus Newman, partner 0.03 µg/mL | – | – | 0.119 | – | 0.0631 | 0.06

fitness, S. aureus DSM 20231, one replicate
Conditions | first compound 0.375 µg/mL | first compound 0.75 µg/mL | first compound 1.5 µg/mL
partner 0.06 µg/mL | 0.658 | 0.656 | 0.654
partner 0.12 µg/mL | 0.483 | 0.518 | 0.483

O=C(N[C@H](CO)[C@H](O)c1ccc([N+](=O)[O-])cc1)C(Cl)Cl [Chloramphenicol] + CO/N=C(\C(=O)N[C@@H]1C(=O)N2C(C(=O)[O-])=C(C[N+]3(C)CCCC3)CS[C@H]12)c1csc(N)n1 [Cefepime]
fitness
Conditions | partner 0.125 µg/mL | partner 0.25 µg/mL | partner 0.5 µg/mL
S. aureus DSM 20231, first compound 0.75 µg/mL | 0.749 | 0.83 | 0.811
S. aureus DSM 20231, first compound 1.5 µg/mL | 0.661 | 0.699 | 0.645
S. aureus DSM 20231, first compound 3 µg/mL | 0.19 | 0.22 | 0.233
S. aureus Newman, first compound 0.75 µg/mL | 0.756 | 0.685 | 0.611
S. aureus Newman, first compound 3 µg/mL | – | 0.275 | 0.234

O=C(N[C@H](CO)[C@H](O)c1ccc([N+](=O)[O-])cc1)C(Cl)Cl [Chloramphenicol] + N[C@@H]1CONC1=O [Cycloserine D]
fitness
Conditions | partner 0.375 µg/mL | partner 0.75 µg/mL | partner 1.5 µg/mL
S. aureus DSM 20231, first compound 0.75 µg/mL | 0.642 | 0.662 | 0.66
S. aureus DSM 20231, first compound 3 µg/mL | 0.0914 | 0.0972 | 0.0952
S. aureus Newman, first compound 0.75 µg/mL | 0.813 | 0.824 | 0.801
S. aureus Newman, first compound 1.5 µg/mL | 0.573 | 0.542 | 0.571
S. aureus Newman, first compound 3 µg/mL | 0.201 | 0.164 | 0.165
